Test system: Unhealthy Skin Signature
Settings: normal human keratinocytes, various doses of zinc pyrithione, 6-24 hours

Substance: zinc pyrithione
- Linkage to Unhealthy Skin Signature gene expression pattern: negative linkage
